Measurements published in ChEMBL document CHEMBL1201862, “PubChem BioAssay data set” (2004).
Calls of active or inactive are those of the source.

Assays:
[1] = target: T1, Calpain-2 catalytic subunit (Sus scrofa, UniProt P43367); assay: pig calpain II inhibitor potency, dose response, biochemical, fluorogenic peptide substrate (AID 1420); assay type: functional
T1 sequence (P43367 whole entry): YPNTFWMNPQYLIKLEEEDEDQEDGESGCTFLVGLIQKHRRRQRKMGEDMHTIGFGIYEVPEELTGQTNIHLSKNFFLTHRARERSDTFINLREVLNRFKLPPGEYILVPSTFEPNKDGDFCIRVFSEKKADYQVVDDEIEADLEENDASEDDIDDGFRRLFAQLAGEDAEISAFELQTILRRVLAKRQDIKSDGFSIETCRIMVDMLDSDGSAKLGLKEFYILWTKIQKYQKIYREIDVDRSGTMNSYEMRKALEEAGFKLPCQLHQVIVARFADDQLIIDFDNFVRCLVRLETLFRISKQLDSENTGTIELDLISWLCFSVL

X-box-binding protein 1 = X-box-binding protein 1 (Homo sapiens, UniProt P17861); assay type: functional, Cricetulus griseus;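 further: confirmatory dose-response counter-screen serving a CHOP assay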
X-box-binding protein 1, sequence (P17861 whole entry): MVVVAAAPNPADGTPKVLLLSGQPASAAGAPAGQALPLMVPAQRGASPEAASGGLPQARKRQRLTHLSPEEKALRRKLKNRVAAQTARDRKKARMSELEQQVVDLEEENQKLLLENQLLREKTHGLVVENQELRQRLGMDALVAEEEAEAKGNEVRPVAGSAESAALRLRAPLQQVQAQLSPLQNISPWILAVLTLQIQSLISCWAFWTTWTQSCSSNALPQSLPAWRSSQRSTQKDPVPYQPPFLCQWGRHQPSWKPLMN

Vero = Vero cell cytotoxicity, cytotoxicity control for flavivirus capping enzyme inhibitors (AID 588742); assay type: functional; details: Chlorocebus sabaeus
[2] = HeLa cell cytotoxicity, dose response, cytotoxicity control for MgcRacGAP inhibitor project (AID 624300); assay type: functional
[3] = target: T2, Rac GTPase-activating protein 1 (Homo sapiens, UniProt Q9H0H5); assay: MgcRacGAP GTPase-activating activity inhibitors, confirmation, biochemical, ADP Hunter fluorescence, primary and confirmatory (AID 624330); assay type: functional
T2 sequence (Q9H0H5 whole entry): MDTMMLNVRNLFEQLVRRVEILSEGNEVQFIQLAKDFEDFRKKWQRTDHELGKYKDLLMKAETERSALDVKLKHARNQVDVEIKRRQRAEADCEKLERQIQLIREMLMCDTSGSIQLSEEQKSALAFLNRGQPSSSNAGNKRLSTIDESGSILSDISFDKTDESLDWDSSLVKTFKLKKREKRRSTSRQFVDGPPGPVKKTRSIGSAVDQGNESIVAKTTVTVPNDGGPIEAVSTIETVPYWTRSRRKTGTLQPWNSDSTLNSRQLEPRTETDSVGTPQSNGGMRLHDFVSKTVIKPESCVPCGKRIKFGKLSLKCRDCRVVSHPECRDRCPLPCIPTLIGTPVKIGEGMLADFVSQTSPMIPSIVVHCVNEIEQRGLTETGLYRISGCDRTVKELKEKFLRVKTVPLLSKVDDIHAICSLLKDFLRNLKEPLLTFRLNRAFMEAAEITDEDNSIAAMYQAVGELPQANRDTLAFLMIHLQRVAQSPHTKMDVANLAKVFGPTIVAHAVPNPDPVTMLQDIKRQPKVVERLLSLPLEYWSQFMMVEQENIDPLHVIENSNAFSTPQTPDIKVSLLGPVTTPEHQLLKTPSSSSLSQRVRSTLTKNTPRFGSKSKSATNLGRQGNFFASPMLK

Protein Tat = Protein Tat (Human immunodeficiency virus type 1 group M subtype B (isolate HXB2)(HIV-1), UniProt P04608); assay type: functional;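 further: tat binding to TAR RNA read out by fluorescence polarization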
Protein Tat, sequence (P04608 whole entry): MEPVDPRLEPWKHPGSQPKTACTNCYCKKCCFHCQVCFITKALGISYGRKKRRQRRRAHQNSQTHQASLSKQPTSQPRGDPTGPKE

[4] = THP-1 cell cytotoxicity, dose response, cytotoxicity control for Vif-APOBEC3G degradation inhibitor project, THP-1 cells (AID 1117359); assay type: functional; details: Human immunodeficiency virus 1, THP-1
[5] = Vero cell cytotoxicity, dose response, cytotoxicity control for Vif-APOBEC3G degradation inhibitor project, Vero cells (AID 1117358); assay type: functional; details: Human immunodeficiency virus 1, Vero
[6] = target: Luciferin 4-monooxygenase (Photinus pyralis, UniProt P08659); assay: firefly luciferase enzyme inhibitors, dose response, biochemical, luminescence (AID 1891)
Luciferin 4-monooxygenase, sequence (P08659 whole entry): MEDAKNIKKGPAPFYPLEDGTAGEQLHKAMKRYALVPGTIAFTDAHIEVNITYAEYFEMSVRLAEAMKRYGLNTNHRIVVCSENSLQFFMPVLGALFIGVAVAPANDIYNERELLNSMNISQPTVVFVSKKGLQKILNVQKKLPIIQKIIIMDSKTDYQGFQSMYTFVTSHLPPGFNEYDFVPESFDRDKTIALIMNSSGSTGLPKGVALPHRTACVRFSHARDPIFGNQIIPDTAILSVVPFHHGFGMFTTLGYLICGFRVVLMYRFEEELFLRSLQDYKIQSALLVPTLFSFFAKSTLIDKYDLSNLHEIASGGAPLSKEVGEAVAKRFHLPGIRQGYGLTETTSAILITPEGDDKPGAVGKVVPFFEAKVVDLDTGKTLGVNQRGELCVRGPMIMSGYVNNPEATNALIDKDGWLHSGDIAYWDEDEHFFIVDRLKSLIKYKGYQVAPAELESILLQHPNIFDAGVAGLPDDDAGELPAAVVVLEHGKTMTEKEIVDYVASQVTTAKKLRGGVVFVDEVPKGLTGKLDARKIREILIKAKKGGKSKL

[7] = Luminescence Cell-Based Dose Confirmation HTS to Identify Inhibitors of Platelet Dense Granule Release. [Related pubchem assays: 1663 (Primary HTS), 1678 (Summary of Project)]; assay type: functional
[8] = Fluorescence Cell-Based Dose Response to Identify Inhibitors of Thrombin Receptor-Activating Peptide SFLLRN-Mediated P-Selectin Induction on Platelets. [Related pubchem assays: 1663 (Primary HTS), 1889 (retest at dose ), 1891 (counterscreen), 1678 (Project Summary)]; assay type: functional
HEK293 [9] = assay: NOD1 signaling inhibitors, primary screen, cell-based, luminescence, uHTS (AID 1578); assay type: functional; details: Homo sapiens
[10] = target: E3 ubiquitin-protein ligase Mdm2 (Homo sapiens, UniProt Q00987); assay: enhancers of MDM2-luciferase reporter signal, concentration-effect titration, project on inhibitors of MDM2 ubiquitin ligase, cellular assay, luminescent readout, 384-well plate format (AID 1394); assay type: functional;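 further: MDM2 E3 inhibitors raise luminescence so EC50 is for signal enhancement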
E3 ubiquitin-protein ligase Mdm2, sequence (Q00987 whole entry): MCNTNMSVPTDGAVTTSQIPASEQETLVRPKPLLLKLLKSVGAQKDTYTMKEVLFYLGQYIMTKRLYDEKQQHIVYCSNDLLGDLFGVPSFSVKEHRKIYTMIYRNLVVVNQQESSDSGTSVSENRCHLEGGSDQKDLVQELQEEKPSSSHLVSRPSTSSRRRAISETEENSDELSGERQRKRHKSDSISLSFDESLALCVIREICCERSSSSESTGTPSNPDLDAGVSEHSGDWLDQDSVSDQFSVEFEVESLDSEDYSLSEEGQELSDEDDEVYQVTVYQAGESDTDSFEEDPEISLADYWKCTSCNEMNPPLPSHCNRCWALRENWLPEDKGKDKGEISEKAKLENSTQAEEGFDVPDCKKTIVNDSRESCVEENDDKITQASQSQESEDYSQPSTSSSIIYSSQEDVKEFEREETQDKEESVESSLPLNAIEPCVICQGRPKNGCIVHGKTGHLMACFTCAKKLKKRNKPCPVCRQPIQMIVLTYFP

BJ [11] = assay: cytotoxicity toward BJ-TERT fibroblasts, dose response, cell-based, RAS-independent, luminescence (AID 1933); assay type: functional; details: Homo sapiens
HEK293 [12] = assay: cells; assay type: functional, cell-based; details: Homo sapiens
BJ [13] = assay: cells; assay type: functional, cell-based; details: Homo sapiens
HEK293 [14] = assay: cells; assay type: functional, cell-based; details: Homo sapiens; remark: listed apart in the source
[15] = target: Nucleotide-binding oligomerization domain-containing protein 2 (Homo sapiens, UniProt Q9HC29); assay: NOD2 signaling inhibitors, cell-based, luminescence, uHTS, HEK293 (AID 1566); assay type: functional
Nucleotide-binding oligomerization domain-containing protein 2, sequence (Q9HC29 whole entry, the tested form may be a part): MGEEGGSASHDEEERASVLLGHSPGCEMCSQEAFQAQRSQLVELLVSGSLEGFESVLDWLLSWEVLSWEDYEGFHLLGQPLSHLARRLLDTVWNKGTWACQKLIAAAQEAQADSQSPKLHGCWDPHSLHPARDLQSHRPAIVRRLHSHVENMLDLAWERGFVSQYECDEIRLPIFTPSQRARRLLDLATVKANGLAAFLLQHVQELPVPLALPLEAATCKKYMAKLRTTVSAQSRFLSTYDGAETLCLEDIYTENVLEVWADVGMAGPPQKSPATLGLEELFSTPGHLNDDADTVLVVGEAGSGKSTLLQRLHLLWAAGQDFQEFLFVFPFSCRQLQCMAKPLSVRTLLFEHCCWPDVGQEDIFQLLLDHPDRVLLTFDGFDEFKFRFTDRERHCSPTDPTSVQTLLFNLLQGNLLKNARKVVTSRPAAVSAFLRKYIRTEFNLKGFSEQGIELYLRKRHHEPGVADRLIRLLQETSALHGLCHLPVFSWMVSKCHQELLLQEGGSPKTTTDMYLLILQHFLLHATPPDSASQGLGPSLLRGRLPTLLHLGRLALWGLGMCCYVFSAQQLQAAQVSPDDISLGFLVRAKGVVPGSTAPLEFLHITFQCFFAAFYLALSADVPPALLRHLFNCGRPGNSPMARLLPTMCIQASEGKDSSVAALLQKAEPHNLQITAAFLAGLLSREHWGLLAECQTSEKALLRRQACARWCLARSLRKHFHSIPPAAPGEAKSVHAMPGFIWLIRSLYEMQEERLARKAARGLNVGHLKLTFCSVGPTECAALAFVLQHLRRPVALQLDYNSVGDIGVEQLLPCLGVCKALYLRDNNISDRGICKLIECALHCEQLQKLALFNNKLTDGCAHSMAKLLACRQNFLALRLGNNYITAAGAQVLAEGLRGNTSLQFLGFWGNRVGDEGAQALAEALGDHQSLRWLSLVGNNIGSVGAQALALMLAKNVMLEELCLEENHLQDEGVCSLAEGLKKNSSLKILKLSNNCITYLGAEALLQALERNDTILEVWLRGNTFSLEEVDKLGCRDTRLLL

HEK293 [16] = assay: NOD2 signaling inhibitors in MDP-stimulated cells, cell-based, uHTS, luminescence (AID 2001); assay type: functional; details: Homo sapiens
HEK293 [17] = assay: cells; assay type: functional, cell-based; details: Homo sapiens; remark: listed apart in the source
BJ [18] = assay: cytotoxicity toward BJ-TERT-LT-ST fibroblasts, dose response, cell-based, RAS-independent, luminescence (AID 1935); assay type: functional; details: Homo sapiens;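 further: BJ fibroblasts immortalized with TERT plus LT and ST oncogenes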
[19] = cytotoxicity toward DRD oncogenic fibroblasts, dose response, cell-based, non-viral oncogenic, luminescence (AID 1934); assay type: functional; details: Homo sapiens
[20] = target: Beta-2 adrenergic receptor (Homo sapiens, UniProt P07550); assay: beta2AR agonists driving receptor internalization, dose response, cell-based, FAP fluorogen, flow cytometry, cherry pick 1 (AID 588763); assay type: functional
Beta-2 adrenergic receptor, sequence (P07550 whole entry): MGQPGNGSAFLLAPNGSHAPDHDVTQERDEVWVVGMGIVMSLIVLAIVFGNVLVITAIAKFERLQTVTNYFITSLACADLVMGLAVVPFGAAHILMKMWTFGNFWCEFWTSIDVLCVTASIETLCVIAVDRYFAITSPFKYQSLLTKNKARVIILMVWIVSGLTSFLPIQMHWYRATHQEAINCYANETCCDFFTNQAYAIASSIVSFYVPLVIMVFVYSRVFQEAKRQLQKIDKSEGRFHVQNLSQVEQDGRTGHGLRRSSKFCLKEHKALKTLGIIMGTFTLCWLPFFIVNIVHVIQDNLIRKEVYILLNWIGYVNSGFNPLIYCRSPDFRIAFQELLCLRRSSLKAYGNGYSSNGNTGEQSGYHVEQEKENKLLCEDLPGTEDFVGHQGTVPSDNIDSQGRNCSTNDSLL

Melanocortin receptor 4 = Melanocortin receptor 4 (Homo sapiens, UniProt P32245); assay: MC4R antagonist potency on cAMP, dose response, cell-based, TR-FRET, biased antagonists (AID 602298); assay type: functional;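 further: antagonist potency against agonist-stimulated cAMP production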
Melanocortin receptor 4, sequence (P32245 whole entry): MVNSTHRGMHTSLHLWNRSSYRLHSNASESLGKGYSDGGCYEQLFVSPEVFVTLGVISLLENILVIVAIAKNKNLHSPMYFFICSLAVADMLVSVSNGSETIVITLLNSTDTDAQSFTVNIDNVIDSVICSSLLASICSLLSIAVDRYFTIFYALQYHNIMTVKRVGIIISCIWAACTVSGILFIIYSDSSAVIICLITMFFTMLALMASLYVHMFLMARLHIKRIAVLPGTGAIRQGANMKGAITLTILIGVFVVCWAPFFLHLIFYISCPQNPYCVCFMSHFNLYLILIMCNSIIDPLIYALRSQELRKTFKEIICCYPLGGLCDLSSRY

[21] = nonselective inhibitors of cellular cAMP signaling, dose response, counter-screen for MC4R biased antagonist project, cell-based, TR-FRET cAMP detection (AID 602305); assay type: functional;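 further: U2OS cells stimulated with forskolin near its EC80 as the cAMP inducer; potency is for inhibition of forskolin-stimulated cAMP signaling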
[22] = HEp-2 cell cytotoxicity, dose response, cytotoxicity control for RSV inhibitor project, HTS (AID 2410); assay type: functional; details: human respiratory syncytial virus
[23] = endogenous miR-122 level reduction, dose response, orthogonal assay for miR-122 inhibitor project, cell-based, Huh7, RT-qPCR, dry powder (AID 687041); assay type: functional
Estrogen receptor beta = Estrogen receptor beta (Homo sapiens, UniProt Q92731);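 further: recombinant ER-beta bound to coactivator SRC1 peptide in presence of estradiol agonist; inhibitors block coactivator peptide binding and lower the FRET signal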
Estrogen receptor beta, sequence (Q92731 whole entry): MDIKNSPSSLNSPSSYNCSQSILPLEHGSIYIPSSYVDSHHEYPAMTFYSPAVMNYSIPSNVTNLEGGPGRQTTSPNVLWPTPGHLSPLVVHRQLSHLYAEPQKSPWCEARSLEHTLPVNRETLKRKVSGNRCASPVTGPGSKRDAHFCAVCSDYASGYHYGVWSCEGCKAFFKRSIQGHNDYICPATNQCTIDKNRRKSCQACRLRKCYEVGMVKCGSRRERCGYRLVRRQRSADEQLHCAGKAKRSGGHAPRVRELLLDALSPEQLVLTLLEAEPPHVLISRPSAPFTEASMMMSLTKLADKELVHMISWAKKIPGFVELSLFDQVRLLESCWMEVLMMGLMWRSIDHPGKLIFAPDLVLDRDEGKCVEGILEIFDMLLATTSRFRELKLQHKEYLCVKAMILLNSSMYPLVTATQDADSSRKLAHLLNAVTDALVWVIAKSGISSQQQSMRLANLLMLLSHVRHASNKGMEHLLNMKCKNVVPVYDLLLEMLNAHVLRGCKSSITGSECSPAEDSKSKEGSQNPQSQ

[24] = target: DNA dC->dU-editing enzyme APOBEC-3A (Homo sapiens, UniProt P31941); assay: Dose Response confirmation of small molecule APOBEC3A DNA Deaminase Inhibitors via a fluorescence-based single-stranded DNA deaminase assay. [Related pubchem assays (depositor defined):AID493011, AID493024]; assay type: functional
DNA dC->dU-editing enzyme APOBEC-3A, sequence (P31941 whole entry): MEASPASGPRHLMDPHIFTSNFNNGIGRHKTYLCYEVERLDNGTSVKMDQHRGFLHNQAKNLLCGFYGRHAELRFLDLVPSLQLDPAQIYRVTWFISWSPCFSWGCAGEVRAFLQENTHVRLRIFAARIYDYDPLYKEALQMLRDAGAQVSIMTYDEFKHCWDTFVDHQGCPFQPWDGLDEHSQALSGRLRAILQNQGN

[25] = target: DNA dC->dU-editing enzyme APOBEC-3G (Homo sapiens, UniProt Q9HC16); assay type: functional;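 further: Dose-response counterscreen measuring inhibition of APOBEC3G DNA deaminase activity, run while confirming APOBEC3A inhibitors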
DNA dC->dU-editing enzyme APOBEC-3G, sequence (Q9HC16 whole entry, the tested form may be a part): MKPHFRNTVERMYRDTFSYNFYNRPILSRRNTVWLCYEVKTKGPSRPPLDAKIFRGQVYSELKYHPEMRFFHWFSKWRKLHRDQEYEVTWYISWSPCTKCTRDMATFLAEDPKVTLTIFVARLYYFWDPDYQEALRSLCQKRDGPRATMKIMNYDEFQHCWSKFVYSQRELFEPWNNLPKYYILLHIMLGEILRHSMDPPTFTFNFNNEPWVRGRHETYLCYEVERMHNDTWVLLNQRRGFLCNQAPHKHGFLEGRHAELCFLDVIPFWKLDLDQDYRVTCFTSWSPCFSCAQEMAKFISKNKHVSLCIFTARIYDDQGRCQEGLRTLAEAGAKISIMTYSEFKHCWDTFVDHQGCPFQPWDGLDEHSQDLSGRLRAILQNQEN

[26] = target: T3, Carboxy-terminal domain RNA polymerase II polypeptide A small phosphatase 1 (Homo sapiens, UniProt Q9GZU7); assay: inhibitors of CTDSP1, concentration-response testing, biochemical assay, absorbance-based, actives from ultra-high-throughput screening (AID 540297); assay type: functional
T3 sequence (Q9GZU7 whole entry): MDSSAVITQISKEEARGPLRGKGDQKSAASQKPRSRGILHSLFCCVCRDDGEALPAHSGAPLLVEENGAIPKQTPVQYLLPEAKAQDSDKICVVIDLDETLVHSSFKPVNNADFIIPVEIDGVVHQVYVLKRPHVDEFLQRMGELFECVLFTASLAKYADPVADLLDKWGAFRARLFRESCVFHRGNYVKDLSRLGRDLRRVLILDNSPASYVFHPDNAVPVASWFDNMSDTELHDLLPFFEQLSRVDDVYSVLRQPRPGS

[27] = target: Heat shock protein HSP 90-alpha (Homo sapiens, UniProt P07900); assay: Luminescence-based dose response biochemical high throughput screening assay for inhibitors of the Heat Shock Protein 90 (HSP90). [Related pubchem assays: 1831 (Summary AID.), 1846 (Confirmation screen.), 1789 (Primary screen.)]

## CCOc1cccc(CNc2ccc(O)cc2)c1OCc1ccc(Cl)cc1Cl
[1]
  IC50: 8.34 µM (not active)
X-box-binding protein 1
  Absolute IC50 (XBP1): 10 µM
Vero
  CC50: 36.4 µM (active)
[2]
  CC50: 85.7 µM (active)
[3]
  IC50: 118 µM (active)
Protein Tat
  IC50: > 100 µM (inconclusive)
[4]
  CC50: 30.4 µM (active)
[5]
  CC50: > 40 µM (active)

## CCS(=O)(=O)Nc1ccc(-c2nnc(SCC(=O)OC)o2)cc1
[6]
  EC50: > 112 µM (not active)
[7]
  EC50: 6.33 µM (active)
[8]
  EC50: < 30 µM (active)

## O=C(COC(=O)c1ccccc1C(=O)c1ccc(Cl)c([N+](=O)[O-])c1)NC1CCCCCC1
HEK293 [9]
  EC50: 3.78 µM (active)
[10]
  EC50: 12.4 µM (not active)
BJ [11]
  EC50: 4.41 µM (active)
HEK293 [12]
  IC50: 1.9 µM (active)
BJ [13]
  EC50: 9.86 µM (inconclusive)
HEK293 [14]
  IC50: 18.3 µM (active)
[15]
  EC50: > 20 µM (inactive)
HEK293 [16]
  IC50: 3.13 µM (active)
HEK293 [17]
  IC50: > 20 µM (inactive)
BJ [18]
  EC50: 4.91 µM (inconclusive)
[19]
  EC50: 4.47 µM (active)
[20]
  EC50: 42.3 µM (inactive)
Melanocortin receptor 4
  IC50: 26.6 µM (inactive)
[21]
  IC50: > 64.6 µM (inactive)

## CC1CCCCN1C(=O)c1cc2nc(-c3ccccc3)cc(-c3ccccc3)n2n1 (stereo not drawn)
[22]
  CC50: 15.6 µM (active)
[23]
  AC50: 1.13 µM (active)
cells
  IC50: 19.3 µM (active)

## CCCCCCNC(=O)c1cc(-c2ccco2)nc2ccccc12
Estrogen receptor beta
  IC50: 2.6 µM (active)
[24]
  IC50: 13.6 µM (active)
[25]
  IC50: 16 µM (active)
[26]
  IC50: 5.1 µM (active)

## Cc1cc(C(=O)Cn2nc(C(=O)O)c3ccccc3c2=O)c(C)n1CC(F)(F)F
[27]
  IC50: > 60 µM (not active)
